# Assay results from patent US20250082931A1, “Treating Gastric Cancer Using TTFields Combined with XELOX, FOLFOX or the Individual Constituents Thereof” (Novocure GmbH, priority 2019, published 2025).
# How the values were obtained:
# AGS cells [1] = experiment: Overall effect (cytotoxic effect x clonogenic effect); type: cell-based; details: 72 h
# Experimental: (§1) After 6-14 days the colonies were fixed, stained and counted to determine clonogenic effect. The overall effect was calculated by multiplying the cytotoxic effect and the clonogenic effect.
# (§2) Overall effect: Each colony number was multiply in the percent of cytotoxic effect of its dish and averages and standard deviations of each treatment were calculated in Excel software. […] Significant was determine by 2-way ANOVA followed Multiple comparison using GraphPed software.
# KATO III cells [2] = experiment: Apoptosis analysis by Annexin V / 7AAD staining; type: cell-based; details: for AnnV+ 7AAD+ cell fraction / AnnV+ 7AAD− cell fraction / AnnV− 7AAD+ cell fraction / AnnV− 7AAD− cell fraction: 72 h
# Experimental: (§3) After 72 h of treatment the media and the cells were collected, and cytotoxicity was determined by cell counts. Cells (including cells from the media) were stained for Annexin V and 7AAD for apoptosis analysis. For the testing of the clonogenic effect, cells were seeded for colonies.
# (§4) Cells were seeded on inovitro dishes and petri dishes 24 h before starting the experiments. Media containing the indicated concentration of each chemotherapy component alone or FOLFOX and control media was added to the cells and the dishes were connected to TTFields (as in SOP-BI-009) or grown in 37° C., 5% CO2 for 72 h. Each treatment included 8 repeats (8 dishes). The media was replaced every 24 h. At the end of the experiment the cells were collected, and cytotoxicity was determined by cell counts, small number of cells were seeded for colonies and the cells (including cells from the media) were stained for Annexin V and 7AAD for apoptosis analysis.
# (§5) Apoptotic effect: Average of cell fraction of each marker staining (Annexin V and 7AAD) of at least 5 dishes from each treatment was calculated in Excel software. The averages from these repeats was calculated to averages and is presented in stacked bar graph using GraphPed software.
# AGS cells [3] = experiment: Clonogenic effect (colonies count); type: cell-based; details: for colonies count: 72 h
# Experimental: (§6) After 72 h of treatment the media and the cells were collected, and cytotoxicity was determined by cell counts. […] For the testing of the clonogenic effect, cells were seeded for colonies.
# as §1
# (§7) Clonogenic effect: The colonies from each well were counted using ImageJ software. Average and standard deviation of colony number of at least 5 wells from each treatment were calculated in excel software. The averages from these repeats was calculated to averages and standard errors and is presented as percent from control (no drug treatment) in XY graph of points with error bars using GraphPed software. Significant was determine by 2-way ANOVA followed Multiple comparison using GraphPed software.
# AGS cells [4] = experiment: Apoptosis analysis by Annexin V / 7AAD staining; type: cell-based; details: for AnnV+ 7AAD+ cell fraction / AnnV+ 7AAD− cell fraction / AnnV− 7AAD+ cell fraction / AnnV− 7AAD− cell fraction: 72 h
# Experimental: as §3, §4, §5
# KATO III cells [5] = experiment: Clonogenic effect (colonies count); details: for colonies count: 72 h, one experiment;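 as to all read-outs here: after treatment, KATO III cells were reseeded and grown 6–14 days, then colonies were fixed, stained and counted, expressed as percent of untreated (no drug) control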
# Experimental: as §6, §1, §7
# KATO III cells [6] = tested on: KATO III cells
# Experimental: (§8) During the treatment the media of all dishes was replaced every 24 h (“hours”).
# (§9) After 72 h of treatment the media and the cells were collected, and cytotoxicity was determined by cell counts.
# as §4
# (§10) A TTFields generator (Inovitro systems) was used to apply the treatment to the cells.
# (§11) Cytotoxic effect: Average and standard deviation of cell number of at least 5 dishes from each treatment was calculated in Excel software. The averages from these repeats was calculated to averages and standard error and is presented as percent from control (no drug treatment) in XY graph of points with error bars using GraphPed software. Significant was determine by 2-way ANOVA followed Multiple comparison using GraphPed software.
# AGS cells [7] = tested on: AGS cells
# Experimental: as §8, §9, §4, §10, §11
# AGS cells [8] = experiment: Cytotoxic effect by cell count after 72 h, with and without TTFields
# Experimental: as §8, §9, §4, §10, §11
# KATO III cells [9] = experiment: as above
# Experimental: as §8, §9, §4, §10, §11
# KATO III cells [10] = experiment: Overall effect (cytotoxic effect x clonogenic effect); details: 72 h, one experiment
# Experimental: as §1, §2
# [11] = 0.2 uM, + TTFields 150 kHz 1.0 V/cm, one experiment
# [12] = 0.2 uM, no TTFields, one experiment
# [13] = 1 uM, + TTFields 150 kHz 1.0 V/cm, one experiment
# [14] = 1 uM, no TTFields, one experiment
# [15] = 5 uM, + TTFields 150 kHz 1.0 V/cm, one experiment
# [16] = 5 uM, no TTFields, one experiment
# [17] = FOLFOX experiment, 5 uM, + TTFields 150 kHz 1.0 V/cm
# [18] = FOLFOX experiment, 5 uM, no TTFields
# [19] = 2.5 uM, + TTFields 150 kHz 1.6 V/cm, one experiment
# [20] = 2.5 uM, no TTFields, one experiment
# [21] = 5 uM, + TTFields 150 kHz 1.6 V/cm, one experiment
# [22] = 10 uM, + TTFields 150 kHz 1.6 V/cm, one experiment
# [23] = 10 uM, no TTFields, one experiment
# [24] = FOLFOX experiment, 10 uM, + TTFields 150 kHz 1.6 V/cm
# [25] = FOLFOX experiment, 10 uM, no TTFields
# [26] = 10 uM, + TTFields 150 kHz 1.0 V/cm, one experiment
# [27] = 2.5 uM, + TTFields 150 kHz 1.6 V/cm
# [28] = 5 uM, + TTFields 150 kHz 1.6 V/cm
# [29] = 10 uM, + TTFields 150 kHz 1.6 V/cm
structure (smiles),measurement,setting,value
Nc1nc2c(c(=O)[nH]1)N(C=O)C(CNc1ccc(C(=O)N[C@@H](CCC(=O)O)C(=O)O)cc1)CN2 (stereo partly drawn) [Leucovorin],overall effect (colonies count multiplying the cytotoxic effect),AGS cells [1]; [11],42.9 % from control
same,overall effect (colonies count multiplying the cytotoxic effect),AGS cells [1]; [12],86.6 % from control
same,overall effect (colonies count multiplying the cytotoxic effect),AGS cells [1]; [13],36.7 % from control
same,overall effect (colonies count multiplying the cytotoxic effect),AGS cells [1]; [14],89.7 % from control
same,overall effect (colonies count multiplying the cytotoxic effect),AGS cells [1]; [15],41.7 % from control
same,overall effect (colonies count multiplying the cytotoxic effect),AGS cells [1]; [16],88.8 % from control
same,overall effect (colonies count multiplying the cytotoxic effect),AGS cells [1]; [17],41 % from control
same,overall effect (colonies count multiplying the cytotoxic effect),AGS cells [1]; [18],88 % from control
same,AnnV+ 7AAD+ cell fraction,KATO III cells [2]; [19],18.45%
same,AnnV+ 7AAD− cell fraction,KATO III cells [2]; [19],39.43%
same,AnnV− 7AAD+ cell fraction,KATO III cells [2]; [19],0.3%
same,AnnV− 7AAD− cell fraction,KATO III cells [2]; [19],41.82%
same,AnnV+ 7AAD+ cell fraction,KATO III cells [2]; [20],8.51%
same,AnnV+ 7AAD− cell fraction,KATO III cells [2]; [20],24.86%
same,AnnV− 7AAD+ cell fraction,KATO III cells [2]; [20],0.06%
same,AnnV− 7AAD− cell fraction,KATO III cells [2]; [20],66.57%
same,AnnV+ 7AAD+ cell fraction,KATO III cells [2]; [21],25.55%
same,AnnV+ 7AAD− cell fraction,KATO III cells [2]; [21],36.56%
same,AnnV− 7AAD+ cell fraction,KATO III cells [2]; [21],0.2%
same,AnnV− 7AAD− cell fraction,KATO III cells [2]; [21],37.69%
same,AnnV+ 7AAD+ cell fraction,KATO III cells [2]; [16],9.4%
same,AnnV+ 7AAD− cell fraction,KATO III cells [2]; [16],36.5%
same,AnnV− 7AAD+ cell fraction,KATO III cells [2]; [16],0.12%
same,AnnV− 7AAD− cell fraction,KATO III cells [2]; [16],53.98%
same,AnnV+ 7AAD+ cell fraction,KATO III cells [2]; [22],28.48%
same,AnnV+ 7AAD− cell fraction,KATO III cells [2]; [22],35.82%
same,AnnV− 7AAD+ cell fraction,KATO III cells [2]; [22],0.4%
same,AnnV− 7AAD− cell fraction,KATO III cells [2]; [22],35.3%
same,AnnV+ 7AAD+ cell fraction,KATO III cells [2]; [23],12.64%
same,AnnV+ 7AAD− cell fraction,KATO III cells [2]; [23],39.85%
same,AnnV− 7AAD+ cell fraction,KATO III cells [2]; [23],1.01%
same,AnnV− 7AAD− cell fraction,KATO III cells [2]; [23],46.5%
same,AnnV+ 7AAD+ cell fraction,KATO III cells [2]; [24],33.83%
same,AnnV+ 7AAD− cell fraction,KATO III cells [2]; [24],18.24%
same,AnnV− 7AAD+ cell fraction,KATO III cells [2]; [24],1.32%
same,AnnV− 7AAD− cell fraction,KATO III cells [2]; [24],46.62%
same,AnnV+ 7AAD+ cell fraction,KATO III cells [2]; [25],24.39%
same,AnnV+ 7AAD− cell fraction,KATO III cells [2]; [25],12.36%
same,AnnV− 7AAD+ cell fraction,KATO III cells [2]; [25],0.80%
same,AnnV− 7AAD− cell fraction,KATO III cells [2]; [25],62.46%
same,apoptotic effect of drug alone,KATO III cells [2]; without TTFields,does not show
same,colonies count,AGS cells [3]; [11],70 % from control
same,colonies count,AGS cells [3]; [12],88 % from control
same,colonies count,AGS cells [3]; [13],77 % from control
same,colonies count,AGS cells [3]; [14],87 % from control
same,colonies count,AGS cells [3]; [15],70 % from control
same,colonies count,AGS cells [3]; [16],95 % from control
same,colonies count,AGS cells [3]; [17],69 % from control
same,colonies count,AGS cells [3]; [18],103 % from control
same,clonogenic effect of drug alone,AGS cells [3]; without TTFields,does not show
same,AnnV+ 7AAD+ cell fraction,AGS cells [4]; [11],5.34%
same,AnnV+ 7AAD− cell fraction,AGS cells [4]; [11],4.69%
same,AnnV− 7AAD+ cell fraction,AGS cells [4]; [11],2.18%
same,AnnV− 7AAD− cell fraction,AGS cells [4]; [11],87.79%
same,AnnV+ 7AAD+ cell fraction,AGS cells [4]; [12],2.25%
same,AnnV+ 7AAD− cell fraction,AGS cells [4]; [12],3.42%
same,AnnV− 7AAD+ cell fraction,AGS cells [4]; [12],2.19%
same,AnnV− 7AAD− cell fraction,AGS cells [4]; [12],92.14%
same,AnnV+ 7AAD+ cell fraction,AGS cells [4]; [15],5.55%
same,AnnV+ 7AAD− cell fraction,AGS cells [4]; [15],5.61%
same,AnnV− 7AAD+ cell fraction,AGS cells [4]; [15],3.04%
same,AnnV− 7AAD− cell fraction,AGS cells [4]; [15],85.8%
same,AnnV+ 7AAD+ cell fraction,AGS cells [4]; [16],2.29%
same,AnnV+ 7AAD− cell fraction,AGS cells [4]; [16],4.12%
same,AnnV− 7AAD+ cell fraction,AGS cells [4]; [16],1.02%
same,AnnV− 7AAD− cell fraction,AGS cells [4]; [16],92.57%
same,AnnV+ 7AAD+ cell fraction,AGS cells [4]; [26],3.74%
same,AnnV+ 7AAD− cell fraction,AGS cells [4]; [26],6.27%
same,AnnV− 7AAD+ cell fraction,AGS cells [4]; [26],2.72%
same,AnnV− 7AAD− cell fraction,AGS cells [4]; [26],87.27%
same,AnnV+ 7AAD+ cell fraction,AGS cells [4]; [23],2.84%
same,AnnV+ 7AAD− cell fraction,AGS cells [4]; [23],5.62%
same,AnnV− 7AAD+ cell fraction,AGS cells [4]; [23],1.01%
same,AnnV− 7AAD− cell fraction,AGS cells [4]; [23],90.54%
same,AnnV+ 7AAD+ cell fraction,AGS cells [4]; [17],10.2%
same,AnnV+ 7AAD− cell fraction,AGS cells [4]; [17],6.6%
same,AnnV− 7AAD+ cell fraction,AGS cells [4]; [17],2.4%
same,AnnV− 7AAD− cell fraction,AGS cells [4]; [17],80.7%
same,AnnV+ 7AAD+ cell fraction,AGS cells [4]; [18],4.3%
same,AnnV+ 7AAD− cell fraction,AGS cells [4]; [18],5.3%
same,AnnV− 7AAD+ cell fraction,AGS cells [4]; [18],2.6%
same,AnnV− 7AAD− cell fraction,AGS cells [4]; [18],87.7%
same,apoptotic effect of drug alone,AGS cells [4]; without TTFields,does not show
same,colonies count,KATO III cells [5]; [27],60 % from control
same,colonies count,"KATO III cells [5]; 2.5 uM, no TTFields",100 % from control
same,colonies count,KATO III cells [5]; [28],68 % from control
same,colonies count,"KATO III cells [5]; 5 uM, no TTFields",79 % from control
same,colonies count,KATO III cells [5]; [29],62 % from control
same,colonies count,"KATO III cells [5]; 10 uM, no TTFields",91 % from control
same,clonogenic effect of drug alone,KATO III cells [5]; without TTFields,does not show
same,cytotoxic effect of drug alone,KATO III cells [6],does not show
same,cytotoxic effect of drug alone,AGS cells [7],does not show
same,cell count,"AGS cells [8]; 0.2 uM, + TTFields 150 kHz 1.0 V/cm",44 % from control
same,cell count,"AGS cells [8]; 0.2 uM, no TTFields",88 % from control
same,cell count,"AGS cells [8]; 1 uM, + TTFields 150 kHz 1.0 V/cm",46.5 % from control
same,cell count,"AGS cells [8]; 1 uM, no TTFields",84 % from control
same,cell count,"AGS cells [8]; 5 uM, + TTFields 150 kHz 1.0 V/cm",45 % from control
same,cell count,"AGS cells [8]; 5 uM, no TTFields",77 % from control
same,cell count,AGS cells [8]; [17],59 % from control
same,cell count,AGS cells [8]; [18],83 % from control
same,cell count,KATO III cells [9]; [19],58 % from control
same,cell count,KATO III cells [9]; [20],106 % from control
same,cell count,KATO III cells [9]; [21],51 % from control
same,cell count,KATO III cells [9]; [16],107 % from control
same,cell count,KATO III cells [9]; [22],47 % from control
same,cell count,KATO III cells [9]; [23],90 % from control
same,cell count,"KATO III cells [9]; FOLFOX experiment, 5 uM, + TTFields 150 kHz 1.6 V/cm",49 % from control
same,cell count,KATO III cells [9]; [18],102 % from control
same,overall effect (colonies count multiplying the cytotoxic effect),KATO III cells [10]; [27],32 % from control
same,overall effect (colonies count multiplying the cytotoxic effect),"KATO III cells [10]; 2.5 uM, no TTFields",106 % from control
same,overall effect (colonies count multiplying the cytotoxic effect),KATO III cells [10]; [28],35 % from control
same,overall effect (colonies count multiplying the cytotoxic effect),"KATO III cells [10]; 5 uM, no TTFields",81 % from control
same,overall effect (colonies count multiplying the cytotoxic effect),KATO III cells [10]; [29],27 % from control
same,overall effect (colonies count multiplying the cytotoxic effect),"KATO III cells [10]; 10 uM, no TTFields",78 % from control
